Read-outs that look alike come from different tables or passages of the source.
Experiments:
[1] = biological target: T1, Beta1 (Homo sapiens, UniProt P08588); test: PDSP primary binding Beta1; conditions: 1.5 h; primary binding, 10,000 nM; last figure of the line = mean of the 4 before it; read-out: Beta1, PDSP raw data, mean
T1 construct: purchased NIMH Psychoactive Drug Screening Program (PDSP)
Description: (§1) To determine if any off-target receptor-binding effects are present, all the novel ligands were sent to the National Institute of Mental Health (NIMH), Psychoactive Drug Screening Program (PDSP). The ligands were screened over a panel of 47 receptors, ion channels, and transporters to determine any other possible interactions with […]. The hERG-binding was also determined. […] No binding of the test compounds to calcium channels was observed. […] It is necessary to screen the compounds for hERG-binding during the early process of drug discovery. The unintentional binding of many drugs to hERG can cause blockade of hERG K+ channels in the heart, which can cause many side effects including cardiac arrhythmias and sudden death. […] All of the α5 imidazodiazepines were tested for hERG-binding.
(§2) The NIMH PDSP assay protocol book [https://kidbdev.med.unc.edu/databases/PDSP%20Protocols%20II%202013-03-28.pdf accessed on 23 April 2023]. describes the protocols for primary and secondary radio-ligand binding assays. These assays were carried out in a final volume of 125 µL per well in the appropriate binding buffer.
(§3) The binding of a ligand to a receptor, ion channel, or transporter was determined in the […] of 10 µM of the appropriate reference compound. […] Plates were incubated in the dark for 90 min at rt, and the reactions were stopped by vacuum filtration onto 0.3% polyethyleneimine (PEI) soaked 96-well filter mats using a 96-well Filtermateharvester. This was followed by three washes with cold PBS buffer. Radioactivity was then counted on a Microbeta counter. Nonlinear regression was used to analyze the data with N = 6 replicates.

[2] = biological target: T2, NET (Homo sapiens, UniProt P23975); test: PDSP primary binding NET; conditions: primary binding, 10,000 nM; last figure of the line = mean of the 4 before it; read-out: NET, PDSP raw data, mean
T2 construct: purchased NIMH Psychoactive Drug Screening Program (PDSP)
Description: as §1, §2, §3

[3] = test system: NMDA; test: PDSP primary binding NMDA; conditions: primary binding, 10,000 nM; last figure of the line = mean of the 4 before it
Description: as §1, §2, §3

[4] = biological target: T3, Alpha3Beta4 (Rattus norvegicus, UniProt P04757+P12392); test: PDSP primary binding Alpha3Beta4; conditions: primary binding, 10,000 nM; last figure of the line = mean of the 4 before it; read-out: Alpha3Beta4, PDSP raw data, mean
T3 construct: purchased NIMH Psychoactive Drug Screening Program (PDSP)
Description: as §1, §2, §3

[5] = biological target: T4, M1 (Homo sapiens, UniProt P11229); test: PDSP primary binding M1; conditions: primary binding, 10,000 nM; last figure of the line = mean of the 4 before it; read-out: M1, PDSP raw data, mean
T4 construct: purchased NIMH Psychoactive Drug Screening Program (PDSP)
T4 sequence (P11229 1-460): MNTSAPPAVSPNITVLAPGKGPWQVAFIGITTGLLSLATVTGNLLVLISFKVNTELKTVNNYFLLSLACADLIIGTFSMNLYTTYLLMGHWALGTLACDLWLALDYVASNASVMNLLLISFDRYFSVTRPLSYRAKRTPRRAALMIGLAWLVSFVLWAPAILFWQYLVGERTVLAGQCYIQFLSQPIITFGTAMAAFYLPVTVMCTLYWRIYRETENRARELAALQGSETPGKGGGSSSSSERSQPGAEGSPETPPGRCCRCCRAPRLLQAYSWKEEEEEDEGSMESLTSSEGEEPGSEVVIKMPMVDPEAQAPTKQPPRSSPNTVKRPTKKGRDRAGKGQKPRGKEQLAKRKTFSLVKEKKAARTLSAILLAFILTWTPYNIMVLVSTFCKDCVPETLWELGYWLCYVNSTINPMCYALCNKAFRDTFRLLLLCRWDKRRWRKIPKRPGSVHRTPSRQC
Description: as §1, §2, §3

[6] = test system: NR2B; test: PDSP primary binding NR2B; conditions: primary binding, 10,000 nM; last figure of the line = mean of the 4 before it
Description: as §1, §2, §3

[7] = test system: AMPA; test: PDSP primary binding AMPA; conditions: primary binding, 10,000 nM; last figure of the line = mean of the 4 before it
Description: as §1, §2, §3

[8] = test system: Sigma 2; test: PDSP primary binding Sigma 2; conditions: primary binding, 10,000 nM; last figure of the line = mean of the 4 before it
Description: as §1, §2, §3

[9] = biological target: T5, Alpha1D (Homo sapiens, UniProt P25100); test: PDSP primary binding Alpha1D; conditions: 1.5 h; primary binding, 10,000 nM; last figure of the line = mean of the 4 before it; read-out: Alpha1D, PDSP raw data, mean
T5 construct: purchased NIMH Psychoactive Drug Screening Program (PDSP)
T5 sequence (P25100 1-572): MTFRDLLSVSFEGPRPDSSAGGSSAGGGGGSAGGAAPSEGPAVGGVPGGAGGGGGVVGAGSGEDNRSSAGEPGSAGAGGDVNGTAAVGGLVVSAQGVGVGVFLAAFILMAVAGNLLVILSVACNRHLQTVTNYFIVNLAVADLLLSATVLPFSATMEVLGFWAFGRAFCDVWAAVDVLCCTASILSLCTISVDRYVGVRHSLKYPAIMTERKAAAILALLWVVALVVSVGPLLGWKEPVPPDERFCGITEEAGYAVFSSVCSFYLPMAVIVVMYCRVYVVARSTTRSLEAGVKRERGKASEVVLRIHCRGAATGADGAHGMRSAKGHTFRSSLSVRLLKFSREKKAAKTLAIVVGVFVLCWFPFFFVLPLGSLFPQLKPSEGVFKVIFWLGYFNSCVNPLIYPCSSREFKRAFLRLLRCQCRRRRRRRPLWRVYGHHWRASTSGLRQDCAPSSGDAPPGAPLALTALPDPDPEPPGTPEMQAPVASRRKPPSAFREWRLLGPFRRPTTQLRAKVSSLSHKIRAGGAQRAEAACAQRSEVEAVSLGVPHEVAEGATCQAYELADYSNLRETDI
Description: as §1, §2, §3

[10] = biological target: T6, H1 (Homo sapiens, UniProt P35367); test: PDSP primary binding H1; conditions: primary binding, 10,000 nM; last figure of the line = mean of the 4 before it; read-out: H1, PDSP raw data, mean
T6 construct: purchased NIMH Psychoactive Drug Screening Program (PDSP)
Description: as §1, §2, §3

[11] = biological target: T7, MOR (Homo sapiens, UniProt P35372); test: PDSP radioligand binding at MOR; conditions: 1.5 h
T7 construct: purchased NIMH Psychoactive Drug Screening Program (PDSP)
From the text: Opioid receptors are a family of inhibitory G-coupled protein receptors where opioids act as the ligand. The kappa opioid receptors (KOR), µ and δ opioid receptors (MOR and DOR), and nociception opioid receptor (NOP) fall under the family of opioids receptors. It has been reported that oxadiazole imidazodiazepines can mediate analgesic and anti-inflammatory properties mediated also by the κ opioid receptor (KOR). The binding at KOR is usually silent. The affinities of the test compounds for KOR, DOR, and MOR were determined using radioligand binding assays at a screening concentration of 10,000 nM in collaboration with the National Institute of Mental Health’s Psychoactive Drug Screening Program (PDSP), as mentioned before. Concentration-dependent experiments were conducted to determine Ki values for the compounds that exceeded more than 50% radioligand displacement in primary binding assays.
as §2, §3

[12] = primary binding, 10,000 nM, last figure of the line = mean of the 4 before it, read-out: MOR, PDSP raw data, mean
[13] = at 10,000 nM, N = 5, [3H]-DAMGO 1.20 nM, read-out: Primary Binding %MOR

T2 sequence (P23975 whole entry): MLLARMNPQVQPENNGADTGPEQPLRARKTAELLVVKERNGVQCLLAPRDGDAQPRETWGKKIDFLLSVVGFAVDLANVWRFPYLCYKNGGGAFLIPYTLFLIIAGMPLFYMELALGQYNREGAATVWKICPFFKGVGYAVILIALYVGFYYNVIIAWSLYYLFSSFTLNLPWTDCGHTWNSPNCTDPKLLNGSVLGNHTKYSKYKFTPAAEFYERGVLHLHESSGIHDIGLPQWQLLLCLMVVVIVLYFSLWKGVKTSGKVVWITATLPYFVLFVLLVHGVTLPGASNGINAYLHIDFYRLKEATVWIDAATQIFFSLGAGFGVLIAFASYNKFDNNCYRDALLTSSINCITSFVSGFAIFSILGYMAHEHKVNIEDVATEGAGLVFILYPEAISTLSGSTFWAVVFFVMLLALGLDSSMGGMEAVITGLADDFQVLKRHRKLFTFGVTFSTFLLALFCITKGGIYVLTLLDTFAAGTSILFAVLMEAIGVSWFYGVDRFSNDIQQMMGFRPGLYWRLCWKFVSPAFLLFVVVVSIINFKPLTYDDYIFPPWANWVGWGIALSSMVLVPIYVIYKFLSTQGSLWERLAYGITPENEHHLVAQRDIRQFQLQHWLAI
T3 sequence (P04757 26-499): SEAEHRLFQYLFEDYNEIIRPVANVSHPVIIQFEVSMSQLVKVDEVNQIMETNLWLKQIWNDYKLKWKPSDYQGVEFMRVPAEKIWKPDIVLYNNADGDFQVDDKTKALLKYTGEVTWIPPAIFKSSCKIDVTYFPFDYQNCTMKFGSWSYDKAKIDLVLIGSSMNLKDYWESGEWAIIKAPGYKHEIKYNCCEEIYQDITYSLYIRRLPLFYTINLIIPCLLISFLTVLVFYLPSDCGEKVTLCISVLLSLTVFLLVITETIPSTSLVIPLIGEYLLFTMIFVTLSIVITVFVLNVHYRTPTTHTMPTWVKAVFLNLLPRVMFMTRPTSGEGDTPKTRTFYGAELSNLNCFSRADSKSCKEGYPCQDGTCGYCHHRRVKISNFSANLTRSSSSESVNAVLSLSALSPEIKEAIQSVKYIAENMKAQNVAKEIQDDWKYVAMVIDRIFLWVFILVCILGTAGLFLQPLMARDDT
T3 sequence (P12392 21-495): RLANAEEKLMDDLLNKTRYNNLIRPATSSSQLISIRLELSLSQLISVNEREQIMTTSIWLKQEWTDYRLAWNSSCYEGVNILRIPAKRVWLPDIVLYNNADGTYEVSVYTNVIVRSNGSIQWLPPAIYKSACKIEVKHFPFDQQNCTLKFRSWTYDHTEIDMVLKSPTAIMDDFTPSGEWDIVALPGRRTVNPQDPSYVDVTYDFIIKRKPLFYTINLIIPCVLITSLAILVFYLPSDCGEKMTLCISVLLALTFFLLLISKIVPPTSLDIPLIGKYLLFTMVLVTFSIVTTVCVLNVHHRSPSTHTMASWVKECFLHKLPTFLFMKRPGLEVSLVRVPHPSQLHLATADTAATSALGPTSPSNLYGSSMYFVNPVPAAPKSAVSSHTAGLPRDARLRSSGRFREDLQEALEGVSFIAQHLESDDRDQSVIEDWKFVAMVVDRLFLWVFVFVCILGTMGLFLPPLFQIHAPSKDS
T1 sequence (P08588 whole entry): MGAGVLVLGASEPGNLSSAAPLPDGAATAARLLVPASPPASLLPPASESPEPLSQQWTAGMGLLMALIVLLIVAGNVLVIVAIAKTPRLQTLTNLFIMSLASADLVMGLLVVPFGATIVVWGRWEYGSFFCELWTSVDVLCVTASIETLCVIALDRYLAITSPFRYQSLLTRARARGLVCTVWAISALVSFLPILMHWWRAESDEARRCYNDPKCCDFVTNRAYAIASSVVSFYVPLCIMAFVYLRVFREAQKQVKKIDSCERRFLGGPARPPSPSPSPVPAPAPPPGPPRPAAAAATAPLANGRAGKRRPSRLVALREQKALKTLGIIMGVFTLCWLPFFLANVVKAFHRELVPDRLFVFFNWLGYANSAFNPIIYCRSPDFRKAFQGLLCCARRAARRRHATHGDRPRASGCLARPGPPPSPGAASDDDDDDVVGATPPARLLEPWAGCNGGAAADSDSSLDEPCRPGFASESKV
T7 sequence (P35372 whole entry): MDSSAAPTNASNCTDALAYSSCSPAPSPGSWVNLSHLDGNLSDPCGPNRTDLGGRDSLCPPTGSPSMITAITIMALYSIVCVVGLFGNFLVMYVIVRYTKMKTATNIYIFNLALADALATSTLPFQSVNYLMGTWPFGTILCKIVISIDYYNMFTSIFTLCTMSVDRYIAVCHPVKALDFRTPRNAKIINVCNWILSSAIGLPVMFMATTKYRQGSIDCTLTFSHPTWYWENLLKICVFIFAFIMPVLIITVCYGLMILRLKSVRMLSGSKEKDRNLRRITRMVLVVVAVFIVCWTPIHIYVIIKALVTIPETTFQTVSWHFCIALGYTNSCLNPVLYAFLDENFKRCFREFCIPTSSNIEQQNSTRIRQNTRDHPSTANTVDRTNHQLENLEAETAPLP
T6 sequence (P35367 whole entry): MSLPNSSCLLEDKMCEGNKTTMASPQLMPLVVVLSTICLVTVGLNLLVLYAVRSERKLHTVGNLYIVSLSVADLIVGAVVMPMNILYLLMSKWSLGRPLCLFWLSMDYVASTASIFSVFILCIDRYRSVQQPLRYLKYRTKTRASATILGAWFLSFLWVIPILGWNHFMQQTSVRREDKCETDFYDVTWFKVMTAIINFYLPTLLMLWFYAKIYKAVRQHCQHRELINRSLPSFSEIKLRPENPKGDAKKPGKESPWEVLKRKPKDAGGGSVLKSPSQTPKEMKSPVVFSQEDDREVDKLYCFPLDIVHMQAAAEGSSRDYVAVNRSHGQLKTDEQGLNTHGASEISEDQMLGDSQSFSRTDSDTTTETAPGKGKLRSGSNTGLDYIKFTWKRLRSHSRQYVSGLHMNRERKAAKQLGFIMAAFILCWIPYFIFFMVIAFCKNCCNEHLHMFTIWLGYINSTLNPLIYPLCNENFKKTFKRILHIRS

| Structure (SMILES) | inhibition at 10 µM [1] [%] | inhibition at 10 µM [2] [%] | NMDA, PDSP raw data, mean [3] [%] | inhibition at 10 µM [4] [%] | inhibition at 10 µM [5] [%] | NR2B, PDSP raw data, mean [6] [%] | AMPA, PDSP raw data, mean [7] [%] | Sigma 2, PDSP raw data, mean [8] [%] | inhibition at 10 µM [9] [%] | inhibition at 10 µM [10] [%] | inhibition at 10 µM [11, 12] [%] | inhibition at 10 µM [11, 13] [%] |
| --- | --- | --- | --- | --- | --- | --- | --- | --- | --- | --- | --- | --- |
| CCc1noc(-c2ncn3c2[C@@H](C)N=C(c2ccccc2F)c2cc(C4CC4)ccc2-3)n1 [Compound 46, (R)-5-(8-Cyclopropyl-6-(2′-fluorophenyl)-4-methyl-4H-benzo[f]imidazo[1,5-a][1,4]diazepin-3-yl)-3-ethyl-1,2,4-oxadiazole] | -26.4 | 24.3 | 66.04 | 10.4 | 0.86 | 32.88 | 0.81 | 89.78 | 34.9 | 33.7 | 25.1 | – |
| C#Cc1ccc2c(c1)C(c1ccccc1Cl)=N[C@H](C)c1c(C(=O)N(C)CC)ncn1-2 [Compound 29] | 8.7 | -2.63 | 98.03 | 0.02 | 4.95 | -14.08 | -3.32 | 13.69 | -11.9 | -1.99 | 7.31 | 7.31 ± 9.54 |
| C#Cc1ccc2c(c1)C(c1ccccn1)=N[C@@H](C)c1c(C(=O)NC)ncn1-2 [Compound 23, (S)-8-Ethynyl-N,4-dimethyl-6-(pyridin-2′-yl)-4H-benzo[f]imidazo[1,5-a][1,4]diazepine-3-carboxamide] | -10.8 | 2.62 | 89.17 | 1.99 | -12 | -22.69 | -17.23 | 8.85 | -6.54 | -2.54 | 5.24 | 5.24 ± 10.7 |
| C#Cc1ccc2c(c1)C(c1ccccc1Cl)=N[C@H](C)c1c(C(=O)NC)ncn1-2 [Compound 21, (R)-6-(2′-Chlorophenyl)-8-ethynyl-N,4-dimethyl-4H-benzo[f]imidazo[1,5-a][1,4]diazepine-3-carboxamide] | 13.1 | -2.45 | 77.15 | 11.3 | -8.29 | -8.82 | -31.95 | 1.04 | -5.53 | -9.7 | -3.57 | -3.57 ± 7.68 |
| CCc1noc(-c2ncn3c2[C@@H](C)N=C(c2ccccc2F)c2cc(-c4ccccc4)ccc2-3)n1 [Compound 35, (R)-3-Ethyl-5-(6-(2′-fluorophenyl)-4-methyl-8-phenyl-4H-benzo[f]imidazo[1,5-a][1,4]diazepin-3-yl)-1,2,4-oxadiazole] | 0.99 | 10.2 | 37.76 | 12 | -1.63 | 24.81 | -5.68 | 85.36 | -0.4 | 10.5 | 14.8 | 14.8 ± 6.32 |
| C#Cc1ccc2c(c1)C(c1ccccn1)=N[C@@H](C)c1c(C(=O)N(C)C)ncn1-2 [Compound 31, (S)-8-Ethynyl-N,N,4-trimethyl-6-(pyridin-2′-yl)-4H-benzo[f]imidazo[1,5-a][1,4]diazepine-3-carboxamide] | -16.2 | 10.2 | 17.3 | -0.5 | -20 | -10.18 | -10.56 | -12.63 | -6.09 | -7.38 | 4.55 | 4.55 ± 12.5 |
| C#Cc1ccc2c(c1)C(c1ccccc1F)=N[C@H](C)c1c(C(=S)N(C)C)ncn1-2 [Compound 33, (R)-8-Ethynyl-6-(2′-fluorophenyl)-N,N,4-trimethyl-4H-benzo[f]imidazo[1,5-a][1,4]diazepine-3-carbothioamide] | -15.8 | -6 | 43.17 | -0.77 | -1.6 | 3.79 | 7.77 | 43.63 | 3.57 | -10.4 | -11.2 | -2.4 ± 5.72 |
